{"source": "paper PMC5572576", "about": "(The Lancet. Oncology, 2017)", "test_system": "patients with R/R AML", "conditions": "in vivo"}
{"smiles": "CCc1nc(C(N)=O)c(Nc2ccc(N3CCC(N4CCN(C)CC4)CC3)c(OC)c2)nc1NC1CCOCC1", "note": "[gilteritinib]", "values": [{"measurement": "Elevated blood phosphocreatine kinase, Grade 4", "setting": "human", "value": "4 (1·6%) n (%)"}, {"measurement": "Epistaxis, Grade 1", "setting": "human", "value": "36 (14%) n (%)"}, {"measurement": "Epistaxis, Grade 2", "setting": "human", "value": "9 (4%) n (%)"}, {"measurement": "Fall, Grade 1", "setting": "human", "value": "17 (7%) n (%)"}, {"measurement": "Fall, Grade 2", "setting": "human", "value": "10 (4%) n (%)"}, {"measurement": "Fall, Grade 3", "setting": "human", "value": "7 (3%) n (%)"}, {"measurement": "Fall, Grade 4", "setting": "human", "value": "1 (0.4) n (%)"}, {"measurement": "Fatigue, Grade 1", "setting": "human", "value": "31 (12%) n (%)"}, {"measurement": "Fatigue, Grade 2", "setting": "human", "value": "37 (15%) n (%)"}, {"measurement": "Fatigue, Grade 3", "setting": "human", "value": "15 (6%) n (%)"}, {"measurement": "Febrile neutropenia, Grade 3", "setting": "human", "value": "9 (36%) n (%)"}, {"measurement": "Febrile neutropenia, Grade 4", "setting": "human", "value": "7 (3%) n (%)"}, {"measurement": "Febrile neutropenia, Grade 5", "setting": "human", "value": "1 (0·4%) n (%)"}, {"measurement": "Fungal pneumonia, Grade 3", "setting": "human", "value": "11 (4%) n (%)"}, {"measurement": "Gastrointestinal hemorrhage, Grade 3", "setting": "human", "value": "4 (1·6%) n (%)"}, {"measurement": "Gastrointestinal hemorrhage, Grade 4", "setting": "human", "value": "1 (0·4%) n (%)"}, {"measurement": "Grade 3/4 adverse event: anemia", "setting": "human", "value": 24, "unit": "%"}, {"measurement": "Grade 3/4 adverse event: febrile neutropenia", "setting": "human", "value": 39, "unit": "%"}, {"measurement": "Grade 3/4 adverse event: pneumonia", "setting": "human", "value": 11, "unit": "%"}, {"measurement": "Grade 3/4 adverse event: sepsis", "setting": "human", "value": 11, "unit": "%"}, {"measurement": "Grade 3/4 adverse event: thromobocytopenia", "setting": "human", "value": 13, "unit": "%"}, {"measurement": "Headache, Grade 1", "setting": "human", "value": "22 (9%) n (%)"}, {"measurement": "Headache, Grade 2", "setting": "human", "value": "6 (2%) n (%)"}, {"measurement": "Hyperglycemia, Grade 3", "setting": "human", "value": "8 (3%) n (%)"}, {"measurement": "Hyperglycemia, Grade 4", "setting": "human", "value": "1 (0·4%) n (%)"}, {"measurement": "Hyperphosphatemia, Grade 3", "setting": "human", "value": "14 (6%) n (%)"}, {"measurement": "Hyperphosphatemia, Grade 4", "setting": "human", "value": "3 (1·2%) n (%)"}, {"measurement": "Hypertension, Grade 1", "setting": "human", "value": "6 (2%) n (%)"}, {"measurement": "Hypertension, Grade 2", "setting": "human", "value": "11 (4%) n (%)"}, {"measurement": "Hypertension, Grade 3", "setting": "human", "value": "8 (3%) n (%)"}, {"measurement": "Hyperuricemia, Grade 3", "setting": "human", "value": "5 (2%) n (%)"}, {"measurement": "Hyperuricemia, Grade 4", "setting": "human", "value": "1 (0·4%) n (%)"}, {"measurement": "Hypoalbuminemia, Grade 1", "setting": "human", "value": "5 (2%) n (%)"}, {"measurement": "Hypoalbuminemia, Grade 2", "setting": "human", "value": "22 (9%) n (%)"}, {"measurement": "Hypoalbuminemia, Grade 3", "setting": "human", "value": "5 (2%) n (%)"}, {"measurement": "Hypocalcaemia, Grade 1", "setting": "human", "value": "13 (5%) n (%)"}, {"measurement": "Hypocalcaemia, Grade 2", "setting": "human", "value": "15 (6%) n (%)"}, {"measurement": "Hypocalcaemia, Grade 3", "setting": "human", "value": "14 (6%) n (%)"}, {"measurement": "Hypocalcaemia, Grade 4", "setting": "human", "value": "1 (0·4%) n (%)"}, {"measurement": "Hypokalaemia, Grade 1", "setting": "human", "value": "22 (9%) n (%)"}, {"measurement": "Hypokalaemia, Grade 2", "setting": "human", "value": "14 (6%) n (%)"}, {"measurement": "Hypokalaemia, Grade 3", "setting": "human", "value": "7 (3%) n (%)"}, {"measurement": "Hypokalaemia, Grade 4", "setting": "human", "value": "2 (0·8%) n (%)"}, {"measurement": "Hypomagnesemia, Grade 1", "setting": "human", "value": "29 (12%) n (%)"}, {"measurement": "Hypomagnesemia, Grade 2", "setting": "human", "value": "2 (0·8%) n (%)"}, {"measurement": "Hyponatraemia, Grade 1", "setting": "human", "value": "18 (7%) n (%)"}, {"measurement": "Hyponatraemia, Grade 2", "setting": "human", "value": "4 (1·6%) n (%)"}, {"measurement": "Hyponatraemia, Grade 3", "setting": "human", "value": "10 (4%) n (%)"}, {"measurement": "Hyponatraemia, Grade 4", "setting": "human", "value": "2 (0·8%) n (%)"}, {"measurement": "Hypotension, Grade 1", "setting": "human", "value": "7 (3%) n (%)"}, {"measurement": "Hypotension, Grade 2", "setting": "human", "value": "21 (8%) n (%)"}, {"measurement": "Hypotension, Grade 3", "setting": "human", "value": "16 (6%) n (%)"}, {"measurement": "Hypotension, Grade 4", "setting": "human", "value": "2 (0·8%) n (%)"}, {"measurement": "Hypoxia, Grade 1", "setting": "human", "value": "1 (0·4%) n (%)"}, {"measurement": "Hypoxia, Grade 2", "setting": "human", "value": "8 (3%) n (%)"}, {"measurement": "Hypoxia, Grade 3", "setting": "human", "value": "13 (5%) n (%)"}, {"measurement": "Hypoxia, Grade 4", "setting": "human", "value": "5(2%) n (%)"}, {"measurement": "Hypoxia, Grade 5", "setting": "human", "value": "1 (0·4%) n (%)"}, {"measurement": "Increased transaminase, Grade 3", "setting": "human", "value": "6 (2%) n (%)"}, {"measurement": "Insomnia, Grade 1", "setting": "human", "value": "14 (6%) n (%)"}, {"measurement": "Insomnia, Grade 2", "setting": "human", "value": "10 (4%) n (%)"}, {"measurement": "Leukocytosis, Grade 3", "setting": "human", "value": "9 (4%) n (%)"}, {"measurement": "Leukocytosis, Grade 4", "setting": "human", "value": "2 (0·8%) n (%)"}, {"measurement": "Leukopenia, Grade 3", "setting": "human", "value": "2 (0·8%) n (%)"}, {"measurement": "Leukopenia, Grade 4", "setting": "human", "value": "3 (1·2%) n (%)"}, {"measurement": "Lung infection, Grade 3", "setting": "human", "value": "7 (3%) n (%)"}, {"measurement": "Lung infection, Grade 5", "setting": "human", "value": "1 (0·4%) n (%)"}, {"measurement": "Mucosal inflammation, Grade 3", "setting": "human", "value": "5 (2%) n (%)"}, {"measurement": "Mucosal inflammation, Grade 4", "setting": "human", "value": "2 (0·8%) n (%)"}, {"measurement": "Multi-organ failure, Grade 5", "setting": "human", "value": "7 (3%) n (%)"}, {"measurement": "Muscle weakness, Grade 3", "setting": "human", "value": "5 (2%) n (%)"}, {"measurement": "Nausea, Grade 1", "setting": "human", "value": "30 (12%) n (%)"}, {"measurement": "Nausea, Grade 2", "setting": "human", "value": "19 (8%) n (%)"}, {"measurement": "Nausea, Grade 3", "setting": "human", "value": "5 (2%) n (%)"}, {"measurement": "Neutropenia, Grade 2", "setting": "human", "value": "2 (0·8%) n (%)"}, {"measurement": "Neutropenia, Grade 3", "setting": "human", "value": "2 (0·8%) n (%)"}, {"measurement": "Neutropenia, Grade 4", "setting": "human", "value": "18 (7%) n (%)"}, {"measurement": "Neutropenia, Grade 5", "setting": "human", "value": "1 (0·4%) n (%)"}, {"measurement": "Patients requiring dose reductions", "setting": "human", "value": 10, "unit": "%"}, {"measurement": "Patients with maximum post-baseline QTcF interval >500 ms", "setting": "human", "value": 4, "unit": "%"}, {"measurement": "Pleural effusion, Grade 3", "setting": "human", "value": "5 (2%) n (%)"}, {"measurement": "Pneumonia, Grade 1", "setting": "human", "value": "1 (0·4%) n (%)"}, {"measurement": "Pneumonia, Grade 2", "setting": "human", "value": "3 (1·2%) n (%)"}, {"measurement": "Pneumonia, Grade 3", "setting": "human", "value": "26 (10%) n (%)"}, {"measurement": "Pneumonia, Grade 4", "setting": "human", "value": "1 (0·4%) n (%)"}, {"measurement": "Pneumonia, Grade 5", "setting": "human", "value": "4 (1·6%) n (%)"}, {"measurement": "Progressive AML, Grade 3", "setting": "human", "value": "2 (0.8) n (%)"}, {"measurement": "Progressive AML, Grade 5", "setting": "human", "value": "41 (16%) n (%)"}, {"measurement": "Pyrexia, Grade 1", "setting": "human", "value": "36 (14%) n (%)"}, {"measurement": "Pyrexia, Grade 2", "setting": "human", "value": "16 (6%) n (%)"}, {"measurement": "Pyrexia, Grade 3", "setting": "human", "value": "13 (5%) n (%)"}, {"measurement": "QT Prolongation, Grade 3", "setting": "human", "value": "8 (3%) n (%)"}, {"measurement": "Respiratory failure, Grade 3", "setting": "human", "value": "2 (0·8%) n (%)"}, {"measurement": "Respiratory failure, Grade 4", "setting": "human", "value": "5 (2%) n (%)"}, {"measurement": "Respiratory failure, Grade 5", "setting": "human", "value": "7 (3%) n (%)"}, {"measurement": "Sepsis, Grade 2", "setting": "human", "value": "1 (0·4%) n (%)"}, {"measurement": "Sepsis, Grade 3", "setting": "human", "value": "5 (2%) n (%)"}, {"measurement": "Sepsis, Grade 4", "setting": "human", "value": "23 (9%) n (%)"}, {"measurement": "Sepsis, Grade 5", "setting": "human", "value": "7 (3%) n (%)"}, {"measurement": "Septic shock, Grade 4", "setting": "human", "value": "2 (0·8%) n (%)"}, {"measurement": "Septic shock, Grade 5", "setting": "human", "value": "4 (1·6%) n (%)"}, {"measurement": "Serious AE considered related to treatment: acute renal failure", "setting": "human", "value": 2, "unit": "%"}, {"measurement": "Serious AE considered related to treatment: febrile neutropenia", "setting": "human", "value": 2, "unit": "%"}, {"measurement": "Serious AE considered related to treatment: pyrexia", "setting": "human", "value": 1, "unit": "%"}, {"measurement": "Serious AE considered related to treatment: sepsis", "setting": "human", "value": 1, "unit": "%"}, {"measurement": "Serious adverse event: acute renal failure", "setting": "human", "value": 10, "unit": "%"}, {"measurement": "Serious adverse event: bacteremia", "setting": "human", "value": 6, "unit": "%"}, {"measurement": "Serious adverse event: febrile neutropenia", "setting": "human", "value": 31, "unit": "%"}, {"measurement": "Serious adverse event: pneumonia", "setting": "human", "value": 11, "unit": "%"}, {"measurement": "Serious adverse event: progressive disease", "setting": "human", "value": 17, "unit": "%"}, {"measurement": "Serious adverse event: pyrexia", "setting": "human", "value": 8, "unit": "%"}, {"measurement": "Serious adverse event: respiratory failure", "setting": "human", "value": 6, "unit": "%"}, {"measurement": "Serious adverse event: sepsis", "setting": "human", "value": 14, "unit": "%"}, {"measurement": "Skin infection, Grade 3", "setting": "human", "value": "5 (2%) n (%)"}, {"measurement": "Stomatitis, Grade 1", "setting": "human", "value": "12 (5%) n (%)"}, {"measurement": "Stomatitis, Grade 2", "setting": "human", "value": "10 (4%) n (%)"}, {"measurement": "Subdural hematoma, Grade 3", "setting": "human", "value": "4 (1·6%) n (%)"}, {"measurement": "Subdural hematoma, Grade 4", "setting": "human", "value": "2 (0·8%) n (%)"}, {"measurement": "Syncope, Grade 3", "setting": "human", "value": "13 (5%) n (%)"}, {"measurement": "Thrombocytopenia, Grade 1", "setting": "human", "value": "1 (0·4%) n (%)"}, {"measurement": "Thrombocytopenia, Grade 2", "setting": "human", "value": "5 (2%) n (%)"}, {"measurement": "Thrombocytopenia, Grade 3", "setting": "human", "value": "2 (0·8%) n (%)"}, {"measurement": "Thrombocytopenia, Grade 4", "setting": "human", "value": "31 (12%) n (%)"}, {"measurement": "Treatment-related mortality from neutropenia", "setting": "human", "value": "< 1", "unit": "%"}, {"measurement": "Vomiting, Grade 1", "setting": "human", "value": "35 (14%) n (%)"}, {"measurement": "Vomiting, Grade 2", "setting": "human", "value": "7 (3%) n (%)"}, {"measurement": "Vomiting, Grade 3", "setting": "human", "value": "5 (2%) n (%)"}, {"measurement": "Deaths considered possibly/probably related to treatment", "value": "Seven"}]}
